Measurements reported in US20050054696A1, “Indole compounds and medicinal use thereof” (priority 2001, published 2005).

Molecular target: T1, recombinant human liver glycogen phosphorylase (HLGPa) (Homo sapiens, UniProt P06737)
T1 construct: made in house; host or cells: Sf9 insect cells (unpurified cell lysate used as enzyme solution)
T1 sequence (P06737 1-847): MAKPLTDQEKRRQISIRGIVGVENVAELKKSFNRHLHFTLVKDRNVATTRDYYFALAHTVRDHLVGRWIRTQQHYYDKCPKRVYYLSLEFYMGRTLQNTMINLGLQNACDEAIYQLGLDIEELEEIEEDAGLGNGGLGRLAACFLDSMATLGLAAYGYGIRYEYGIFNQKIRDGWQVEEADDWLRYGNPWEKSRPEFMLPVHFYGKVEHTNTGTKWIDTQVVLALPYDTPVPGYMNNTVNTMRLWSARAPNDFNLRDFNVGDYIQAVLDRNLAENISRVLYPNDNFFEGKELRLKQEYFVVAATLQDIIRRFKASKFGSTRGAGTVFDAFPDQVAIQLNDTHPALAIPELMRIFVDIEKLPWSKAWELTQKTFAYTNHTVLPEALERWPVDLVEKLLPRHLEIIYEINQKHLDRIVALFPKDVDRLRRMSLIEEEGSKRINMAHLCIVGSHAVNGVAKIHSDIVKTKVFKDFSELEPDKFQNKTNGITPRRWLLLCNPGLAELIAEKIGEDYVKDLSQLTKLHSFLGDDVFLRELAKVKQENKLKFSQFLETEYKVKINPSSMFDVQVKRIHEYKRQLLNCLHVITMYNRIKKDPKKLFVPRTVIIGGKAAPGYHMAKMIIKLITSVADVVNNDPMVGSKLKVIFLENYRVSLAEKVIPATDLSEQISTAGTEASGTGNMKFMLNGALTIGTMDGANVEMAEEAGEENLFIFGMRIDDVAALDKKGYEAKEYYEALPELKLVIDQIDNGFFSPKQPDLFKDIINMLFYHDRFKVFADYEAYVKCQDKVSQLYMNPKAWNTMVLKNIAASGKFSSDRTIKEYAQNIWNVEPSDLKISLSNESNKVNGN
Experiment: Measurement of liver glycogen phosphorylase activity (enzyme inhibitory activity against HLGPa)
Type: biochemical
Conditions: Sf9 cell lysate expressing recombinant enzyme; reverse reaction (glycogen synthesis from G1-P), phosphate by malachite green, 60 min room temperature
Experimental: Measurement Method of Liver Glycogen Phosphorylase Activity
The measurement of the glycogen phosphorylase activity was performed by measuring the concentration of phosphoric acic produced by a reverse reaction, that is, a reaction wherein the glycogen phosphorylase synthesizes glycogen from G1-P. A cell lysate of Sf9 cells that forcibly expressed recombinant human liver glycogen phosphorylase was diluted to a protein amount of 80 μg/mL with 1 mM imidazole-hydrochloric acid buffer (pH 7.0, containing 0.2 mM PMSF, 250 mM NaCl, 0.025% BSA) and the dilute cell lysate was used as an enzyme solution of human liver glycogen phosphorylase. As a substrate solution, 25 mM Tris-HCl buffer (pH 7.2, containing 250 mM KCl, 6.25 mM MgCl2, 6.25 mM EGTA, 1.25 mM glucose-1-phosphate, 2.5 mg/ml glycogen, 7.5 mM glucose) was used. The test drug was dissolved in 0.5% dimethyl sulfoxide (DMSO). To a mixture of the test drug (10 μl) and the substrate solution (20 μl) was added an enzyme solution (20 μl) to start the enzyme reaction. As a control, 0.5% DMSO was added instead of the test drug. One free of addition of enzyme was used as a blank. The mixture was reacted at room temperature for 60 min, and a malachite green solution (50 μl) was added. The mixture was further reacted at room temperature for 20 min and absorbance at 650 nm was measured. An enzyme solution was added to the blank simultaneously with the malachite green solution and the measurement was done in the same manner. The percent inhibition (%) of the test drug was calculated from ((value of control−value of the test drug)/(value of control−value of blank))×100 (%).

| SMILES | IC50 |
| --- | --- |
| COC(=O)COc1cccc(C(=O)NNC(=O)c2cc3cc(Cl)ccc3[nH]2)c1 [Example 1-69, 2-(3-(2-(5-chloro-1H-indole-2-carbonyl)hydrazinocarbonyl)phenoxy)acetic acid methyl ester] | 150 nM |
| O=C(O)COc1cccc(C(=O)NNC(=O)c2cc3cc(Cl)ccc3[nH]2)c1 [Example 1-70, 2-(3-(2-(5-chloro-1H-indole-2-carbonyl)hydrazinocarbonyl)phenoxy)acetic acid] | 150 nM |
| CN(C)C(=O)COc1cccc(C(=O)NNC(=O)c2cc3cc(Cl)ccc3[nH]2)c1 [Example 1-71, 2-(3-(2-(5-chloro-1H-indole-2-carbonyl)hydrazinocarbonyl)phenoxy)-N,N-dimethylacetamide] | 62 nM |
| Cc1nc(C(=O)NNC(=O)c2cc3cc(Cl)ccc3[nH]2)cs1 [Example 1-72, 2-methylthiazole-4-carboxylic acid 2-(5-chloro-1H-indole-2-carbonyl)hydrazide] | > 100 nM |
| O=C(NNC(=O)c1cc2cc(Cl)ccc2[nH]1)c1ccc(-c2ncn[nH]2)cc1 [Example 1-73, 4-(2H-[1,2,4]triazol-3-yl)benzoic acid 2-(5-chloro-1H-indole-2-carbonyl)hydrazide] | 76 nM |
| O=C(Nc1ccccc1C(=O)NNC(=O)c1cc2cc(Cl)ccc2[nH]1)OC(CO)CO [Example 1-75, 1,3-dihydroxy-2-propyl (2-(2-(5-chloro-1H-indole-2-carbonyl)hydrazinocarbonyl)phenyl)carbamate] | 250 nM |
| CC(C)(COC(=O)Nc1ccccc1C(=O)NNC(=O)c1cc2cc(Cl)ccc2[nH]1)C(=O)O [Example 1-76, 3-((2-(2-(5-chloro-1H-indole-2-carbonyl)hydrazinocarbonyl)phenyl)carbamoyloxy)-2,2-dimethylpropionic acid] | 37 nM |
| O=C(NNC(=O)c1ccco1)c1cc2cc(Cl)ccc2[nH]1 [Example 1-78, furan-2-carboxylic acid 2-(5-chloro-1H-indole-2-carbonyl)hydrazide] | 18 nM |
| O=C(NNC(=O)c1ccc(Cl)nc1Cl)c1cc2cc(Cl)ccc2[nH]1 [Example 1-79, 2,6-dichloronicotinic acid 2-(5-chloro-1H-indole-2-carbonyl)hydrazide] | 83 nM |
| O=C(NNC(=O)c1cc2cc(Cl)ccc2[nH]1)c1ccc[nH]1 [Example 1-80, 1H-pyrrole-2-carboxylic acid 2-(5-chloro-1H-indole-2-carbonyl)hydrazide] | 400 nM |
| O=C(NNC(=O)c1cc2cc(Cl)ccc2[nH]1)c1cnccn1 [Example 1-82, pyrazine-2-carboxylic acid 2-(5-chloro-1H-indole-2-carbonyl)hydrazide] | 360 nM |
| O=C(NNC(=O)c1cc2cc(Cl)ccc2[nH]1)c1ccsc1 [Example 1-83, thiophene-3-carboxylic acid 2-(5-chloro-1H-indole-2-carbonyl)hydrazide] | 880 nM |
| O=C(NNC(=O)c1cc2cc(Cl)ccc2[nH]1)c1ccoc1 [Example 1-84, furan-3-carboxylic acid 2-(5-chloro-1H-indole-2-carbonyl)hydrazide] | 20 nM |
| O=C(NNC(=O)c1ccc(Cl)s1)c1cc2cc(Cl)ccc2[nH]1 [Example 1-85, 5-chlorothiophene-2-carboxylic acid 2-(5-chloro-1H-indole-2-carbonyl)hydrazide] | 430 nM |
| O=C(NNC(=O)c1sccc1Cl)c1cc2cc(Cl)ccc2[nH]1 [Example 1-86, 3-chlorothiophene-2-carboxylic acid 2-(5-chloro-1H-indole-2-carbonyl)hydrazide] | 28 nM |
| Cn1cccc1C(=O)NNC(=O)c1cc2cc(Cl)ccc2[nH]1 [Example 1-87, 1-methyl-1H-pyrrole-2-carboxylic acid 2-(5-chloro-1H-indole-2-carbonyl)hydrazide] | 56 nM |
| Cc1ccsc1C(=O)NNC(=O)c1cc2cc(Cl)ccc2[nH]1 [Example 1-89, 3-methylthiophene-2-carboxylic acid 2-(5-chloro-1H-indole-2-carbonyl)hydrazide] | 450 nM |

| SMILES | IC50 |
| --- | --- |
| O=C(NNC(=O)c1cccc(F)c1F)c1cc2cc(Cl)ccc2[nH]1 [Example 1-91, 2,3-difluorobenzoic acid 2-(5-chloro-1H-indole-2-carbonyl)hydrazide] | 56 nM |
| O=C(NNC(=O)c1cccc2ccccc12)c1cc2cc(Cl)ccc2[nH]1 [Example 1-92, 5-chloro-1H-indole-2-carboxylic acid 2-(naphthalene-1-carbonyl)hydrazide] | 71 nM |
| O=C(NNC(=O)c1cc2cc(Cl)ccc2[nH]1)c1cc(F)c(F)c(F)c1 [Example 1-93, 3,4,5-trifluorobenzoic acid 2-(5-chloro-1H-indole-2-carbonyl)hydrazide] | 270 nM |
| O=C(NNC(=O)c1cc(F)c(F)c(F)c1F)c1cc2cc(Cl)ccc2[nH]1 [Example 1-94, 2,3,4,5-tetrafluorobenzoic acid 2-(5-chloro-1H-indole-2-carbonyl)hydrazide] | 520 nM |
| Cc1ccc(C(=O)NNC(=O)c2cc3cc(Cl)ccc3[nH]2)c(N)c1 [Example 1-95, 2-amino-4-methylbenzoic acid 2-(5-chloro-1H-indole-2-carbonyl)hydrazide] | 280 nM |
| Cc1ccc(N)c(C(=O)NNC(=O)c2cc3cc(Cl)ccc3[nH]2)c1 [Example 1-97, 2-amino-5-methylbenzoic acid 2-(5-chloro-1H-indole-2-carbonyl)hydrazide] | 10 nM |
| Cc1cccc(N)c1C(=O)NNC(=O)c1cc2cc(Cl)ccc2[nH]1 [Example 1-98, 2-amino-6-methylbenzoic acid 2-(5-chloro-1H-indole-2-carbonyl)hydrazide] | 87 nM |
| Cc1cccc(C(=O)NNC(=O)c2cc3cc(Cl)ccc3[nH]2)c1N [Example 1-99, 2-amino-3-methylbenzoic acid 2-(5-chloro-1H-indole-2-carbonyl)hydrazide] | 10 nM |
| Nc1cc(F)c(F)cc1C(=O)NNC(=O)c1cc2cc(Cl)ccc2[nH]1 [Example 1-100, 2-amino-4,5-difluorobenzoic acid 2-(5-chloro-1H-indole-2-carbonyl)hydrazide] | 240 nM |
| Nc1ccsc1C(=O)NNC(=O)c1cc2cc(Cl)ccc2[nH]1 [Example 1-101, 3-aminothiophene-2-carboxylic acid 2-(5-chloro-1H-indole-2-carbonyl)hydrazide] | 35 nM |
| Nc1ccccc1C(=O)NNC(=O)c1cc2cc(Br)ccc2[nH]1 [Example 1-102, 2-aminobenzoic acid 2-(5-bromo-1H-indole-2-carbonyl)hydrazide] | > 100 nM |
| Nc1cc(F)ccc1C(=O)NNC(=O)c1cc2cc(Br)ccc2[nH]1 [Example 1-103, 2-amino-4-fluorobenzoic acid 2-(5-bromo-1H-indole-2-carbonyl)hydrazide] | 28 nM |
| O=C(NNC(=O)c1cc2cc(Cl)ccc2[nH]1)c1cn[nH]c1 [Example 1-104, 1H-pyrazole-4-carboxylic acid 2-(5-chloro-1H-indole-2-carbonyl)hydrazide] | 21 nM |
| COC(=O)Nc1ccccc1C(=O)NNC(=O)c1cc2cc(F)ccc2[nH]1 [Example 1-105, methyl (2-(2-(5-fluoro-1H-indole-2-carbonyl)hydrazinocarbonyl)phenyl)carbamate] | 87 nM |
| Cc1ccc2[nH]c(C(=O)NNC(=O)c3cccn3C)cc2c1 [Example 1-106, 1-methyl-1H-pyrrole-2-carboxylic acid 2-(5-methyl-1H-indole-2-carbonyl)hydrazide] | 78 nM |
| Cc1ccc2[nH]c(C(=O)NNC(=O)c3ccsc3)cc2c1 [Example 1-107, thiophene-3-carboxylic acid 2-(5-methyl-1H-indole-2-carbonyl)hydrazide] | 54 nM |
